SMILES strings stand for the structures.

The test system of the assay is rabbits. Nature of the assay: Effect on pupil diameter in rabbit animal model (change from baseline). As to conditions: for reduction from baseline pupil diameter: dose of 1.25% w/w. The class given is in vivo. The procedure: Dose solutions with concentration range of 0.25% to 4% pilocarpine were prepared and dosed in rabbits. The effect on pupil diameter was measured and recorded as the change from baseline.
Dose solutions with concentration range of 0.03% to 3% carbachol were prepared and dosed in rabbits. The effect on pupil diameter was measured and recorded as the change from baseline. […] The expected efficacious range of carbachol resulting in the aforementioned pupil size reduction would correspond to approximately 0.1 to 1% w/w carbachol (FIG. 2).

In the case of `CC[C@@H]1C(=O)OC[C@@H]1Cc1cncn1C` [pilocarpine], the “reduction from baseline pupil diameter” value is reported as 20-30% (over 0.5 to 2 hours) and “approximately 10%” (up to 3 hours).

As for `C[N+](C)(C)CCOC(N)=O.[Cl-]` [carbachol, carbamoylcholine chloride], the “dose that most closely matches the optimum dose response measured for pilocarpine” value (20-30% pupil diameter reduction over 0.5 to 2 hours, about 10% up to 3 hours, tested 0.03% to 3%) was “approximately 0.6 % w/w”.

These data come from US20220273605A1, “COMPOSITIONS AND METHODS FOR TREATMENT OF PRESBYOPIA” (priority 2019, published 2022).
